SMILES strings stand for the structures.

Type in all cases: in vivo
Details in all cases: total surfactant 0.2% w/v, 21 days

The subject of assay [1] is Setaria viridis (SETVI). Kind of assay: Glasshouse adjuvancy test for pinoxaden on SETVI. Here is the method:
(§1) Pinoxaden was added to the spray tank as a standard EC (emulsifiable concentrate) formulation. The plants were sprayed with pinoxaden at rates of 7.5 or 15 grams of pesticide per hectare using a laboratory track sprayer which delivered the aqueous spray composition at a rate of 200 litres per hectare, using a flat fan nozzle (Teejet 11002VS) at 2 bar. The spray solutions also contained the oleyl 20EO alone or in the 1:1 blends with the capped surfactants. The adjuvants were added to the spray solution at a total surfactant rate of 0.2% w/v. All spray solutions also contained 10% w/w of iso-propanol. The weed species and their BBCH growth stage at spraying were Avena fatua (AVEFA; growth stage 13) and Setaria viridis (SETVI; growth stage 13). Each spray test was replicated three times. The test plants were then grown in a glasshouse under controlled conditions (20/16° C. day/night; 16 hours light; 65% humidity) and watered twice a day. The efficacy of the herbicide was assessed visually and expressed as a percentage of the leaf area killed. Samples were assessed at a time period of 21 days following application.

Assay [2] has as its system Digitaria sanguinalis (DIGSA). Kind of assay: Glasshouse adjuvancy test for mesotrione on DIGSA. Here is the method:
Mesotrione was added to the spray tank as a standard SC (suspension concentrate) formulation. The plants were sprayed with mesotrione at rates of 30 or 60 grams of pesticide per hectare using a laboratory track sprayer which delivered the aqueous spray composition at a rate of 200 litres per hectare, using a flat fan nozzle (Teejet 11002VS) and an application volume of 200 litre/ha (at 2 bar). The spray solutions also contained the oleyl 20EO alone or in 1:1 blends with the capped surfactants. The adjuvants were added to the spray solution at a total surfactant rate of 0.2% w/v. All spray solutions also contained 10% w/w of iso-propanol. The weed species and their BBCH growth stage at spraying were Brachiaria platyphylla (BRAPL; growth stage 12-13), Commelina benghalensis (COMBE; growth stage 12-14) and Digitaria sanguinalis (DIGSA; growth stage 13). Each spray test was replicated three times. The test plants were then grown in a glasshouse under controlled conditions (24/18° C. day/night; 16 hours light; 65% humidity) and watered twice a day. The efficacy of the herbicide was assessed visually and expressed as a percentage of the leaf area killed. Samples were assessed at a time period of 21 days following application

The test system of assay [3] is Avena fatua (AVEFA). Put plainly: Glasshouse adjuvancy test for pinoxaden on AVEFA. As for the experimental part: as §1, with “The efficacy of 1:1 blends of oleyl 20EO with oleyl 20EO with either n-hexanoyl, n-octanoyl or 2-ethyl hexanoyl ester caps as adjuvants for the herbicide pinoxaden was tested in a glasshouse against two weed species, sown into standard soil in pots and cultivated under controlled conditions in a glasshouse (20/16° C. day/night; 16 hours light; 65% humidity). Pinoxaden” for “Pinoxaden”
Dodecyl 23EO and hexadecyl 20EO were capped with an n-hexyl ether cap. The efficacy of 1:1 blends of these with their uncapped counterparts were tested as adjuvants for the herbicide pinoxaden was tested in a glasshouse against two weed species, sown into standard soil in pots and cultivated under controlled conditions in a glasshouse (20/16° C. day/night; 16 hours light; 65% humidity). Pinoxaden was added to the spray tank as a standard EC (emulsifiable concentrate) formulation. The plants were sprayed with pinoxaden at a.i. rates of 7.5 or 15 grams per hectare using a laboratory track sprayer which delivered the aqueous spray composition at a rate of 200 litres per hectare, using a flat fan nozzle (Teejet 11002VS) at 2 bar. The spray solutions tested included the capped and uncapped alone or in the 1:1 blends with the capped surfactants. The adjuvants were added to the spray solution at a total surfactant rate of 0.2% w/v. All spray solutions also contained 10% w/w of iso-propanol. The weed species and their BBCH growth stage at spraying was Avena fatua (AVEFA; growth stage 12). Each spray test was replicated three times. The test plants were then grown in a glasshouse under controlled conditions (20/16° C. day/night; 16 hours light; 65% humidity) and watered twice a day. The efficacy of the herbicide was assessed visually and expressed as a percentage of the leaf area killed. Samples were assessed at a time period of 21 days following application.
Oleyl 20EO was capped with -butyl, n-pentyl and n-benzyl caps. The efficacy of 1:1 blends of these with their uncapped counterparts were tested as adjuvants for the herbicide pinoxaden was tested in a glasshouse against two weed species, sown into standard soil in pots and cultivated under controlled conditions in a glasshouse (20/16° C. day/night; 16 hours light; 65% humidity). Pinoxaden was added to the spray tank as a standard EC (emulsifiable concentrate) formulation. The plants were sprayed with pinoxaden at a.i. rates of 7.5 or 15 grams per hectare using a laboratory track sprayer which delivered the aqueous spray composition at a rate of 200 litres per hectare, using a flat fan nozzle (Teejet 11002VS) at 2 bar. The spray solutions tested included the capped and uncapped alone or in the 1:1 blends with the capped surfactants. The adjuvants were added to the spray solution at a total surfactant rate of 0.2% w/v. All spray solutions also contained 10% w/w of iso-propanol.

As for `CCCCCCCC/C=C\CCCCCCCCOCCOCCOCCOCCOCCOCCOCCOCCOCCOCCOCCOCCOCCOCCOCCOCCOCCOCCOCCOCCO` [Oleyl 20EO, oleyl 20 ethoxylate], the Mean control in assay [1] (pinoxaden 7.5 g ai/ha) came out at 98.0%; in assay [1] (pinoxaden 15 g ai/ha) it was 98.3%; in assay [2] (mesotrione 30 g ai/ha), 68.3%; in assay [2] (mesotrione 60 g ai/ha), 75.0%; in assay [3] (pinoxaden 7.5 g ai/ha, Example 4) it was 65.0%; in assay [3] (pinoxaden 15 g ai/ha, Example 4), 86.7%. In assay [3] (pinoxaden 15 g ai/ha, Example 9, growth stage 12), this molecule showed a Mean control of 92.7%.

The values are drawn from patent publication US11779014B2, “Adjuvants” (SYNGENTA PARTICIPATIONS AG, priority 2017, dated 2023).
